Experimental data reported in article PMC11740379, “Novel Enyne-Modified 1,4-Thiazepines as Epidermal Growth Factor Receptor Inhibitors: Anticancer and Computational Studies” (ACS Omega, 2024).
Read-outs that look alike come from different tables or passages of the source.

Legend:
MCF-7 cells [1] = assay: XTT cytotoxicity assay, breast cancer cells; format: cell-based, human
Description: (§1) The cells were cultured in RPMI medium (Sigma) supplemented with 10% heat-inactivated fetal bovine serum, 1% penicillin, and 1% L-glutamine, and incubated in a humidified CO2 atmosphere at 37 °C.
(§2) To evaluate the cytotoxic effects of TZEPs, which were dissolved in dimethyl sulfoxide (DMSO), the XTT assay (2,3-bis(2-methoxy-4-nitro-5-sulfophenyl)-2H-tetrazolium-5-carboxanilide) was employed. […] Following the incubation, 100 μL of XTT was added to each well, and the plates were incubated for an additional 4 h at 37 °C. The resulting color change was measured by recording the absorbance at 570 nm using a microplate reader (Tecan).
(§3) Conversely, an SI less than 1 means the drug is more toxic to normal cells than to target cells, which is undesirable in therapeutic contexts.

A549 cells [2] = assay: XTT cytotoxicity assay, lung cancer cells; format: cell-based, human; details: for IC50: A549
Description: as §1, §2, §3

A549 cells [3] = assay: Annexin V-FITC/PI apoptosis detection by flow cytometry; format: cell-based, human; details: A549, IC50 concentration, 72 h
Excerpt: (§4) Annexin V, a protein with a high affinity for phosphatidylserine (PS), is pivotal in detecting apoptosis. Normally, PS is located in the inner leaflet of the plasma membrane, but during apoptosis, it moves to the outer leaflet, making it a key marker for apoptotic cells.[16] Annexin V binds specifically to PS on the surface of these cells. A secondary dye like propidium iodide (PI) is used to distinguish apoptotic cells from viable ones with intact membranes. We can identify and quantify viable cells (annexin V–, PI–) and apoptotic cells (annexin V+, PI+) by analyzing fluorescence patterns. Here, we employed the FITC Annexin V Apoptosis Detection Kit I from BD Pharmingen. Cells were seeded at a density of 10^6 cells per well in a 6-well plate and exposed to IC50 concentration of TZEP7 for 72 h. Following treatment, cells were rinsed with cold PBS, resuspended in 1 mL of 1× Binding Buffer, and stained with 5 μL of Annexin V FITC and 5 μL of PI. After vortexing, the samples were incubated at room temperature (25 °C) for 15 min in the dark. Postincubation, 400 μL of 1× Binding Buffer was added to each sample, and apoptosis was measured using a BD Accuri C6 Flow Cytometer. Cisplatin was used as an apoptosis-inducing reference drug.

MCF-7 cells [4] = assay: as above; format: cell-based, human; details: MCF-7, IC50 concentration, 72 h
Excerpt: as §4

PC-3 cells = assay: as above; format: cell-based, human; details: PC-3, IC50 concentration, 72 h
Excerpt: as §4

Bax mRNA = assay: qRT-PCR of apoptosis-related mRNA; format: cell-based, human; details: 72 h, vs untreated control
Description: (§5) To measure the mRNA expression levels of apoptosis-related genes B-cell lymphoma 2 (Bcl-2), Bcl-2-associated X protein (Bax), Cyclin-dependent kinase 2 (CDK2), and Cyclin E, total mRNA was extracted from cells treated with compound 6f using Trizol reagent (Sigma). cDNA was synthesized from the total mRNA using the Qiagen cDNA synthesis kit according to the manufacturer’s instructions. The following primers, each at a concentration of 350 nM, were employed: Bcl-2; forward ([…]), reverse ([…]); Bax; forward ([…]), reverse ([…]); Caspase-8; forward ([…]), reverse ([…]); Caspase-9; forward (TGTCTACGGCACAGATGGA), reverse (GGACTCGTCTTCAGGGGA); EGFRWT: forward ([…]), reverse (CCTGTGCCAGGGACCTTAC−); EGFRT790 M forward ([…]), reverse ([…]); human GAPDH; forward ([…]), reverse (AGATGGTGATGGGCTTCCC). The PCR mix was prepared with 1× buffer containing 0.2 mM dNTPs, 1.6 mM MgCl2, […] of each primer set, cDNA, and 0.25 U Taq polymerase. The PCR conditions were as follows: an initial denaturation at 95 °C for 60 s, followed by 50 cycles of 95 °C for 15 s, 60 °C for 15 s, and 72 °C for 60 s. The cycle threshold (CT) for each replicate was normalized to the average CT of the endogenous control (GAPDH). The relative quantification of gene expression was calculated using the comparative CT method.[17]

Bcl-2 mRNA = assay: qRT-PCR of apoptosis-related mRNA; format: cell-based, human; details: 72 h, vs untreated control
Description: as §5

Caspase-8 mRNA = assay: qRT-PCR of apoptosis-related mRNA; format: cell-based, human; details: 72 h, vs untreated control
Description: as §5

Caspase-9 mRNA = assay: qRT-PCR of apoptosis-related mRNA; format: cell-based, human; details: 72 h, vs untreated control
Description: as §5

EGFRWT mRNA = assay: qRT-PCR of EGFR mRNA expression; format: cell-based, human; details: vs untreated control
Description: as §5

[5] = XTT cytotoxicity assay, non-tumorigenic cells; format: cell-based; details: human, HEK-293 cells (nontumorigenic); HEK293, 0.1 μM; read-out: cell viability

SMILES: Cc1cc(C2=NCC(=CC#Cc3ccccc3)SC(c3ccc(Cl)cc3)=C2)ccc1F [TZEP7]
- viability at 0.1 µM (MCF-7 cells [1]; Homo sapiens, MCF7, MCF-7, 0.1 μM, read-out: cell viability): 68%
- viability at 1 µM (MCF-7 cells [1]; Homo sapiens, MCF7, MCF-7, 1 μM, read-out: cell viability): 54%
- viability at 10 µM (MCF-7 cells [1]; Homo sapiens, MCF7, MCF-7, 10 μM, read-out: cell viability): 44%
- viability at 50 µM (MCF-7 cells [1]; Homo sapiens, MCF7, MCF-7, 50 μM, read-out: cell viability): 28%
- viability at 100 µM (MCF-7 cells [1]; Homo sapiens, MCF7, MCF-7, 100 μM, read-out: cell viability): 18%
- IC50 (MCF-7 cells [1]; Homo sapiens, MCF7, XTT assay, exposure time of the IC50 not stated (24, 48, 72 h tested), read-out: IC50, breast cancer (MCF-7)): 14.1 ± 2.1 µM
- IC50 (MCF-7 cells [1]; Homo sapiens, MCF7, dose–response curve of Figure 2, read-out: IC50, MCF-7, dose–response curve): 14.2 µM
- Selectivity index (SI), breast cancer (MCF-7) (MCF-7 cells [1]; versus normal cells HEK-293): 3.85
- IC50 (A549 cells [2]; Homo sapiens, XTT assay, exposure time of the IC50 not stated (24, 48, 72 h tested), read-out: IC50, lung cancer (A549)): 12.7 ± 2 µM
- IC50 (A549 cells [2]; Homo sapiens, dose–response curve of Figure 2, read-out: IC50, A549, dose–response curve): 12.1 µM
- viability at 0.1 µM (A549 cells [2]; Homo sapiens, A549, 0.1 μM, read-out: cell viability): 68%
- viability at 1 µM (A549 cells [2]; Homo sapiens, A549, 1 μM, read-out: cell viability): 53%
- viability at 10 µM (A549 cells [2]; Homo sapiens, A549, 10 μM, read-out: cell viability): 40%
- viability at 50 µM (A549 cells [2]; Homo sapiens, A549, 50 μM, read-out: cell viability): 30%
- viability at 100 µM (A549 cells [2]; Homo sapiens, A549, 100 μM, read-out: cell viability): 10%
- Selectivity index (SI), lung cancer (A549) (A549 cells [2]; versus normal cells HEK-293): 4.27
- cells in early apoptosis (A549 cells [3]): 15.1%
- cells in late apoptosis (A549 cells [3]): 68.7%
- cells in early apoptosis (MCF-7 cells [4]): 22.4%
- cells in late apoptosis (MCF-7 cells [4]): 68.5%
- cells in early apoptosis (PC-3 cells): 13.7%
- cells in late apoptosis (PC-3 cells): 65.6%
- increase of Bax mRNA level (Bax mRNA; A549, IC50 concentration): 4.8 fold
- increase of Bax mRNA level (Bax mRNA; MCF-7, IC50 concentration): 4.1 fold
- increase of Bax mRNA level (Bax mRNA; PC-3, IC50 concentration): 4.3 fold
- reduction of Bcl-2 mRNA level (Bcl-2 mRNA; A549, IC50 concentration): 3.3 fold
- reduction of Bcl-2 mRNA level (Bcl-2 mRNA; MCF-7, IC50 concentration): 3.4 fold
- reduction of Bcl-2 mRNA level (Bcl-2 mRNA; PC-3, IC50 concentration): 4.3 fold
- induction of Caspase-8 mRNA level (Caspase-8 mRNA; A549, IC50 concentration): 3.8 fold
- induction of Caspase-8 mRNA level (Caspase-8 mRNA; MCF-7, IC50 concentration): 4.2 fold
- induction of Caspase-8 mRNA level (Caspase-8 mRNA; PC-3, IC50 concentration): 5.4 fold
- induction of Caspase-9 mRNA level (Caspase-9 mRNA; A549, IC50 concentration): 3.7 fold
- induction of Caspase-9 mRNA level (Caspase-9 mRNA; MCF-7, IC50 concentration): 4.4 fold
- induction of Caspase-9 mRNA level (Caspase-9 mRNA; PC-3, IC50 concentration): 3.6 fold
- downregulation of EGFRWT mRNA (EGFRWT mRNA; A549, 72 h): 4.6 fold
- downregulation of EGFRWT mRNA (EGFRWT mRNA; MCF-7, 72 h): 3.8 fold
- downregulation of EGFRWT mRNA (EGFRWT mRNA; PC-3, 72 h): 3.4 fold
- viability at 0.1 µM [5]: 87.3%
